This note sets out measurements from US20240366693A1, “COMPOSITIONS FOR ENHANCING IMMUNOTHERAPY EFFICACY IN COLORECTAL CANCER TREATMENT” (The Chinese University of Hong Kong, priority 2023, published 2024).

Broadly, the Kd is the concentration at which binding is half-saturated.

In one data set the test system is IDO1. Put plainly: IDO1 mRNA expression in human CRC cell lines induced with IFNγ. The class given is cell-based. Particulars: HCT116 and LoVo; ICA 5 μM; IFNγ 100 ng/mL. The method, then: (§1) Total RNAs were extracted from cell pellets or colonic tissues using TRIzol Reagent (Life Technologies). Complementary DNA (cDNA) was prepared using PrimeScript RT Reagent Kit with gDNA Eraser (Takara, Shiga, Japan). The relative level of specific genes was determined by QuantStudio™ 7 Flex Real-Time PCR System (Thermo Fisher Scientific). All gene expression values were normalized to β-actin and calculated using the 2-ΔΔCt method.
Given that ICA was identified as the functional metabolite of L. gallinarum (FIG. 4), we postulated that ICA could be an IDO1 inhibitor. We added IFNγ (100 ng/mL) to induce IDO1 expression.

In a further data set the test system is CD4+ T cells. Description: Foxp3+ Treg differentiation of CD4+ T cells in vitro. The class given is cell-based, mouse. As for the experimental part:
(§2) T cells were isolated from spleens of tumour-bearing mice by negative selection using magnetic cell separation (EasySep mouse T cell isolation kit, CD8+ T cell isolation kit or CD4+ CD25+ Regulatory T cell Isolation Kit II; STEMCELL Technologies, Vancouver, Canada). Isolated T cells were cultured in Roswell Park Memorial Institute 1640 medium supplemented with 10% FBS, 50 μM β-mercaptoethanol, 10 ng/ml mouse recombinant interleukin-2 (IL-2), 0.1 ng/mL transforming growth factor β (TGFβ) and activated with Dynabeads mouse anti-CD3/CD28 beads (Thermo Fisher Scientific, Waltham, MA) for 72 hours. Cells were then collected for analysis.

The subject of the next data set is AHR. Description: AHR target gene CYP1B1 expression on CD4+ T cells. Format: cell-based, mouse. As for the experimental part: as §2, §1
A further data set deals with T1, human AHR protein (Homo sapiens, UniProt P35869).
T1 sequence (P35869 11-848): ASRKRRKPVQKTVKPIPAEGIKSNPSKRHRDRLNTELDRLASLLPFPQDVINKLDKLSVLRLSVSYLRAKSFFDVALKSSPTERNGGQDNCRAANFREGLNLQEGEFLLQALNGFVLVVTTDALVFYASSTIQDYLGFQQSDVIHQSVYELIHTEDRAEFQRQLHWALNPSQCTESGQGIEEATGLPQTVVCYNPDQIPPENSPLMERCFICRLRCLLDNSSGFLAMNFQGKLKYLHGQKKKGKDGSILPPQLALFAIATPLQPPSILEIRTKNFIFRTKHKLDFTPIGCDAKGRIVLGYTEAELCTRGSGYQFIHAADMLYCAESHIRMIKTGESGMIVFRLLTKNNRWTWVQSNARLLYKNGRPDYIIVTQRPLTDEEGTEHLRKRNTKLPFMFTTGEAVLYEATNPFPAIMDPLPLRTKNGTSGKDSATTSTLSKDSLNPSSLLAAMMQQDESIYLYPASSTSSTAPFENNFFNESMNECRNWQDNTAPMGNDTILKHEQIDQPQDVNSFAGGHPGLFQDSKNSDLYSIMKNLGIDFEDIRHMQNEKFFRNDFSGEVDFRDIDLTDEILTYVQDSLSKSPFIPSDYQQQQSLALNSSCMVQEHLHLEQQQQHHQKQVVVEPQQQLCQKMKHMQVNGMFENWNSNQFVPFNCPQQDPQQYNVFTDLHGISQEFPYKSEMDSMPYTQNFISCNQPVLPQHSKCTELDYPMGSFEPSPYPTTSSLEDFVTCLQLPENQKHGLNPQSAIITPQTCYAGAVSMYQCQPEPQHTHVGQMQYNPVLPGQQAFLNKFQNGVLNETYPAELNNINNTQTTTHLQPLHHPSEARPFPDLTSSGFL
Put plainly: biochemical. The class given is binding. From the text: We also performed the surface plasma resonance (SPR) assay to explore the interaction between ICA/Kyn with the human AHR receptor. […] These support our hypothesis that ICA displaces Kyn from AHR receptor and inhibited Kyn-mediated Treg differentiation through receptor competition.

The next data set relates to CT26. Put plainly: ICA model in CT26 syngeneic mice with anti-PD1 and Kyn supplementation. The class given is in vivo, mouse. The method, then: For indolecarboxylic acid (ICA) model, ICA (18 mg/kg, Sigma-Aldrich, St. Louis, MO) was gavaged to mice daily. Tumour inoculation and dosing schedule of anti-PD1 or isotype control is the same as described above. After the outgrowth of palpable tumours, kynurenine (Kyn, 10 mg/kg, Sigma-Aldrich) was intraperitoneally injected into mice twice weekly.

Data set [1] has as its system HCT116, LoVo, SW480. Description: Cell viability assay on CRC cells (R. intestinalis example). The class given is cell-based, human. Particulars: R.i CM 5% (vol/vol); butyrate 1 mM; inosine 0.4 μg/ml. As for the experimental part:
1000 cells per well were seed into a 96-well plate and treated with alive or pasteurized E. coli (CFU=10^6/ml) and R. intestinalis (CFU=10^6/ml), 5% (vol/vol) YCFA, E. coli CM, R. i CM in DMEM separately. Cell viability was determined by Thiazolyl Blue Tetrazolium Bromide (M5644, Merck KGaA, Dacmstadt, DE) 3 days constantly.

For data set [2], the system named is HCT116, LoVo, SW480. Description: Cell apoptosis and cell cycle (flow cytometry, western blot). The class given is cell-based, human. The following applies: R.i CM 5%; butyrate 1 mM; inosine 0.4 μg/ml. As for the experimental part: Flow Cytometry was used for cell apoptosis and cell cycle analysis with FACSAria cell sorter (BD Biosciences, Franklin Lakes, US). Data was analyzed by FlowJo 10.4.
Cell apoptosis was detected by FITC Annexin V apoptosis detection kit (556547, BD Biosciences, Franklin Lakes, US). Adherent cells were removed by Trypsin-EDTA solution and washed with cold PBS twice and then resuspend in binding buffer at a concentration of 1× 10^6 cells/ml. 100 μl of cell solution was transferred to a 5 ml tube, incubated with 5 μl FITC Annexin V and 5 μl PI for 15 minutes at 25° C. in the dark. Cells were added with 400 μl binding buffer to stop staining and analyzed by flow cytometer in one hour.
For cell cycle analysis, cell pellet was washed by PBS and incubated in 70 to 80% ethanol at −20° C. for more than two hours. In each test, 10^6 cells were used for staining in 0.5 ml PI/RNase staining buffer (550825, BD Biosciences, Franklin Lakes, US) for 15 minutes at room temperature in the dark. Tubes were stored at 4° C. protected from light and analyzed on flow cytometer with one hour.
A general note: In flow cytometry, cells or beads pass a laser one at a time.

Data set [3] deals with CD8+ T cells. Description: Cytotoxic CD8+ T cell markers, T cells from human PBMC. The class given is cell-based. The following applies: human PBMC T cells activated by α-CD3/CD28 and IL-2; butyrate 1 mM. The method, then: (§3) T cells isolated from healthy human peripheral blood mononuclear cells (PBMC) using immunomagnetic negative selection kit (17951, Stemcell Technologies, Vancouver, CA). Isolated T cells were then cultured in complete RPMI-1640 medium supplied with human CD3/CD28 magnet beads (11161D, Thermo Fisher Scientific, Waltham, US) and 30 U/ml recombinant human IL-2 (589104, BioLgend, San Diego, US) for expiation and activation for three days. Mouse T cells were isolated from the spleen of naïve mice and purified with Mouse T cell isolation kit (19851, Thermo Fisher Scientific, Waltham, US), cultured in complete RPMI-1640 medium with mouse CD3/CD28 beads (11456D, Thermo Fisher Scientific, Waltham, US) and 30 U/ml recombinant mouse IL-2 (575404, BioLegend, San Diego, US).
(§4) Cytotoxic CD8+ T cell markers Granzyme B, IFN-γ, TNF-α under the in vitro treatments of R.i CM, NaBu or TLR5 inbibitor TH1020 (HY-116961, MedChemExpress, Monmouth Junction, US) were analyzed with flow cytometry. Isolated human T cells were stimulated with 30 ng/ml PMA, 1 μg/ml ionomycin and 2.5 μg/ml monensin in complete RPMI-1640 medium at 37° C. for 4 hours. […]

The test system of data set [4] is CD8+ T cells. Put plainly: Cytotoxic CD8+ T cell markers, T cells from mouse spleen. The class given is cell-based. The following applies: butyrate 1 mM, inosine 0.4 μg/ml. As for the experimental part: as §3, §4
For data set [5], the system named is Tlr5. Put plainly: qPCR of receptors and transporters on CD8+ T cells. Particulars: butyrate treatment. Format: cell-based, mouse. The method, then: Total RNA was extracted with Trizol (15596018, Invitrogen, Waltham, US) from naïve mouse spleen isolated T cells after CD3/CD28/IL-2 activation and R.i CM and Butyrate treatments. Then, RNA was reverse transcript into cDNA with RT reagent kit with gDNA eraser (R[…], Takara, Tokyo, JPN). qPCR was performed using TB Green Premix (R[…], Takara) in the QuantStudio 7 Flex System (Thermo Fisher Scientific, Waltham, US). The relative RNA expression was normalized to that of β-actin as denominators.
A general note: Real-time PCR tracks product formation cycle by cycle.

The next data set concerns NF-κB. Put plainly: Phospho-NF-κB p65 in activated Jurkat E6.1 T cells. Format: cell-based, human. The following applies: α-CD3/CD28/IL-2 activated Jurkat E6.1 T cells. The method, then: Phospho-NF-κB p65 (Ser536) Rabbit mAb (3033, Cell Signalling Technology, Danvers, US, 1:1000) and NF-κB p65 (D14E12) Rabbit mAb (8242, Cell Signalling Technology, Danvers, US, 1:1000) were used to measure NF-κB nuclear translocation in αCD3/αCD28/IL2 activated Jurkat E6.1 T cells.
Normal human epithelial cell NCM460, human CRC cell lines HCT116, LoVo, SW480, and mouse CRC cell lines MC38 and CT26 were cultured in Dulbecco's Modified Eagle's Medium (DMEM) with 10% fetal bovine serum (FBS) and 1% penicillin-streptomycin (P/S). Jurkat E6.1 (TIB-152, ATCC) was cultured in RPMI-1640 supplied with 10% FBS and 1% penicillin-streptomycin and activated in 3 μg/ml anti-CD3 (300332, BioLgend, San Diego, US), 5 μg/ml anti-human CD28 (302934, BioLgend, San Diego, US) and 100 IU/ml recombinant human IL-2 (589104, BioLgend, San Diego, US) pre-coated wells for 3 days.

In data set [6] the target is TLR5 (Homo sapiens, UniProt O60602). Put plainly: biochemical.
Chain of TLR5 (O60602 21-858, species assumed): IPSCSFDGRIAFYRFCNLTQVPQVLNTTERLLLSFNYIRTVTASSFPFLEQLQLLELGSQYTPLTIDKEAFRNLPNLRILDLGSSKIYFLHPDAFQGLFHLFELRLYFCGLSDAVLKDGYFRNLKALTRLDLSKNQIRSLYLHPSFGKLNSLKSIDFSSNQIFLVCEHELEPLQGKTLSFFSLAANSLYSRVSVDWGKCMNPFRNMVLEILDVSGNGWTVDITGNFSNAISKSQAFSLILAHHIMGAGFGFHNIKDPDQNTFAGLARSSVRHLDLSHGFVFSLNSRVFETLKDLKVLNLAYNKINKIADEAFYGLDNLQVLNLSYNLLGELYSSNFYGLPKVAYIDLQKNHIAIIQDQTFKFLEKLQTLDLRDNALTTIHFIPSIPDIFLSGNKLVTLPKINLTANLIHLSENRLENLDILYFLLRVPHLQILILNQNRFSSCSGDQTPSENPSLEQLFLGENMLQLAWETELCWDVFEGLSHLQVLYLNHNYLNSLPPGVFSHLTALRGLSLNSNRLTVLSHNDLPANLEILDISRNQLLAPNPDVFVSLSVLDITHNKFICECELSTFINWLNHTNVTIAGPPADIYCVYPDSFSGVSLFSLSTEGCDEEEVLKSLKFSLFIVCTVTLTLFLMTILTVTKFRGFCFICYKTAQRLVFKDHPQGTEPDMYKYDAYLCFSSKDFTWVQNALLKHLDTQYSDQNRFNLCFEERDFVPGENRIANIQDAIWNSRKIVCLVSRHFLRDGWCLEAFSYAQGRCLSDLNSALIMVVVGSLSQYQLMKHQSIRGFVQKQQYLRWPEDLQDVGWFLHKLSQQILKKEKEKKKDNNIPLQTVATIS
Setting [7] is: ICA 18 mg/kg daily gavage with anti-PD1 vs vehicle control.

Structures are written as SMILES.

Turning to `O=C(O)c1c[nH]c2ccccc12` [ICA, indole-3-carboxylic acid], in the data set on IDO1, the IDO1 expression entry is reported as “significantly suppressed IDO1 expression”. Also, in the data set on CD4+ T cells (ICA added to Kyn 50 μM), the “Kyn-mediated Treg differentiation” value is given as “antagonized Kyn-mediated Treg differentiation in a dose-dependent manner”. In addition, the “Treg differentiation, treatment alone” value in the data set on CD4+ T cells (naïve CD4+ T cells, without Kyn) is “none significantly affected Treg differentiation”. Also, the “ICA dose antagonizing Kyn-mediated Treg differentiation” value in the data set with CD4+ T cells (with Kyn 50 μM) is at least 1.25 µM. The “Kyn-induced CYP1B1 expression” value in the data set on AHR (ICA added to Kyn 50 μM) is reported as “markedly suppressed Kyn-induced CYP1B1 expression”. Also, in the data set on AHR (ICA alone), the CYP1B1 expression result was “weakly promoted CYP1B1 expression”. Also, the equilibrium dissociation constant (Kd) on human AHR protein was about 39.4 µM. For the same molecule, in the data set on CT26 (ICA), the “IFNγ+ CD8+ T cells” value is “increased IFNγ+ CD8+ T cells”, the “Kyn level in serum” value is reported as “significantly reduced Kyn level”, the “Kyn level in tumour” value is “significantly reduced Kyn level” and the “Kyn/Trp ratio in tumour” value is given as “significantly reduced”. The Treg infiltration entry in the data set on CT26 (ICA) is recorded as “reduced Treg infiltration”. Also, in the data set on CT26 (setting [7]), the tumour volume entry was “reduced tumour weight and tumour volume”; the tumour weight result is listed as “reduced tumour weight”.
For `CCCC(=O)O` [butyrate, butyric acid], in the data set on HCT116, LoVo, SW480 [1], the “cell viability of CRC cells” value is “cell viability inhibition”. In the data set with HCT116, LoVo, SW480 [2], the cell apoptosis entry is “apoptosis inducement” and the cell cycle entry is given as “cell cycle arrest”. The “production of Granzyme B, IFN-γ and TNF-α in CD8+ T cells” value with CD8+ T cells [3] was “promoted the production of Granzyme B, IFN-γ and TNF-α in CD8^+ T cells”. For the same molecule, in the data set on CD8+ T cells [4], the “Granzyme B+, IFN-γ+, TNF-α+ CD8+ T cells” value is “directly boosted Granzyme B^+, IFN-γ^+, TNF-α^+ CD8^+ T cells”. For the same molecule, the Tlr5 expression entry in the data set with Tlr5 [5] was “much higher”. Moreover, the “NF-κB nuclear translocation / phospho-NF-κB expression” value in the data set with NF-κB was “increased NF-κB nuclear translocation with higher phospho-NF-κB expression”. Moreover, the Kd at TLR5 [6] came to 264 µM.
As for `OC[C@H]1O[C@@H](n2cnc3c(O)ncnc32)[C@H](O)[C@@H]1O` [inosine, reference compound], the “cell viability of CRC cells” value in the data set with HCT116, LoVo, SW480 [1] is listed as “no suppressive effects”. Moreover, in the data set with HCT116, LoVo, SW480 [2], the cell apoptosis entry is on record as “no suppressive effects” and the cell cycle result is “no suppressive effects”. Further, the “Granzyme B+, IFN-γ+, TNF-α+ CD8+ T cells” value in the data set on CD8+ T cells [4] was “no effects on Granzyme B^+, IFN-γ^+, TNF-α^+ CD8^+ T cells”.
